From patent publication EP4389751A1, “HETEROCYCLIC COMPOUNDS AND USES THEREOF” (Kumquat Biosciences Inc., priority 2021, dated 2024)

molecular target: T1, K-Ras G12S (Homo sapiens, UniProt P01116, G12S); assay: HTRF assay of the K-Ras / SOS1 interaction; assay type: biochemical; settings: IC50 (against K-Ras G12D) to IC50 (against K-Ras G12S)
T1 construct: made in house; host or cells: E. coli (e.g., BL21 (DE3))
Excerpt: This assay can be also used to assess a selective inhibition or reduction of signaling output of a mutant Ras protein relative to a wildtype, or relative to a different mutant Ras protein. For example, the equilibrium interaction of wildtype Kras or K-Ras mutant (e.g., wildtype or a mutant thereof including those mentioned in Example 6) with SOS1 (e.g., hSOS1) can be assessed as a proxy or an indication for a subject compound's ability to bind and inhibit Ras protein. HTRF assay detects from (i) a fluorescence resonance energy transfer (FRET) donor (e.g., antiGST-Europium) that is bound to GST-tagged K-Ras mutant to (ii) a FRET acceptor (e.g., anti-6His-XL665) bound to a His-tagged hSOS 1.
The assay buffer can contain ~5 mM HEPES pH 7.4, -150 mM NaCI, - 1 mM DTT, 0.05% BSA and 0.0025% (v/v) Igepal. A Ras working solution is prepared in an assay buffer containing typically a suitable amount of the protein construct (e.g., GST-tagged K-Ras mutant) and the FRET donor (e.g., antiGST-Eu(K) from Cisbio, France). A SOS1 working solution is prepared in an assay buffer containing suitable amount of the protein construct (e.g., His-hSOS1) and the FRET acceptor (e.g., anti-6His-XL665 from Cisbio, France). A suitable amount of the protein construct will depend on the range of activity or range of IC50 values being detected or under investigation. For detecting IC50 within a range of 500 nM, the protein constructs of the same range of molarity can be utilized.
A fixed volume of DMSO with or without test compound is transferred into a 384-well plate. Ras working solution is added to all wells of the test plate. SOS1 working solution is added to all wells except for those that are subsequently filled the inhibitor control solution. Upon incubation for about 10 minutes or longer, the fluorescence is measured with a M1000Pro plate reader (Tecan) using HTRF detection (excitation 337nm, emission 1 : 620nm, emission 2: 665nm). Compounds are tested in duplicates at different concentrations (for example, 10 µM, 2.5 µM, 0.63 µM, 0.16 µM, 0.04 µM, 0.01 µM test compound). The ratiometric data (i.e., emission 2 divided by emission 1) is used to calculate IC50 values against Ras using GraphPad Prism (GraphPad software). Following this general procedure, samples were tested with or without a subject compound disclosed herein including compounds exemplified in Table 3 to assess their abilities to inhibit K-Ras G12S relative to another mutant (e.g., K-Ras G12D). Signaling output measured in terms of IC50 values can be obtained, a ratio of IC50 against one mutant relative to another mutant can be calculated. For instance, a selective reduction of K-Ras G12S signaling output can be evidenced by a ratio greater than one. In particular, a selective reduction of K-Ras G12S signaling relative to K-Ras G12D signaling is evidenced as the ratio of IC50 (against K-Ras G12D) to IC50 (against K-Ras G12S) is greater than 1. […]

For `Cc1cnn(C(=O)N2C3CCC2CN(c2nc(OC[C@@]45CCCN4C[C@H](F)C5)nc4c(F)c(-c5ccc(F)c6sc(N)nc56)c(Cl)cc24)C3)c1` [Compound A113, (3-(7-(2-amino-7-fluorobenzo[d]thiazol-4-yl)-6-chloro-8-fluoro-2-(((2R,7aS)-2-fluorotetrahydro-1H-pyrrolizin-7a(5H)-yl)methoxy)quinazolin-4-yl)-3,8-diazabicyclo[3.2.1]octan-8-yl)(4-methyl-1H-pyrazol-1-yl)methanone], which “Ratio of IC50 KRAS G12D vs. IC50 KRAS G12S” value (“Ratio” below) is on record?
Its value is “A (A: indicates that the ratio of IC50 against KrasG12D vs. IC50 against KrasG12S is 1-fold or greater)”.

With `Cc1nc(C(C)C)nn1C(=O)N1CC2(CCCN(c3nc(OC[C@@]45CCCN4C[C@H](F)C5)nc4c(F)c(-c5ccc(F)c6sc(N)c(C#N)c56)c(Cl)cc34)C2)C1` [Compound A240, 2-amino-4-(6-chloro-8-fluoro-2-(((2R,7aS)-2-fluorotetrahydro-1H-pyrrolizin-7 a(5H)-yl)methoxy)-4-(2-(3-isopropyl-5-methyl-1H-1,2,4-triazole-1-carbonyl)-2,6-diazaspiro[3.5]nonan-6-yl)quinazolin-7-yl)-7-fluorobenzo[b]thiophene-3-carbonitrile] as the compound, how does the “Ratio” value read?
The value was “A (A: indicates that the ratio of IC50 against KrasG12D vs. IC50 against KrasG12S is 1-fold or greater)”.

For `Nc1nc2c(-c3c(Cl)cc4c(NC5CCN(C(=O)Nc6ccncn6)CC5)nc(OC[C@@]56CCCN5C[C@H](F)C6)nc4c3F)ccc(F)c2s1` [Compound A147, 4-((7-(2-amino-7-fluorobenzo[d]thiazol-4-yl)-6-chloro-8-fluoro-2-(((2R,7aS)-2-fluorotetrahydro-1H-pyrrolizin-7a(5H)-yl)methoxy)quinazolin-4-yl)amino)-N-(pyrimidin-4-yl)piperidine-1-carboxamide], which “Ratio” value is on record?
Its value is “A (A: indicates that the ratio of IC50 against KrasG12D vs. IC50 against KrasG12S is 1-fold or greater)”.

With “1-(7-(7-(2-amino-7-fluorobenzo[d]thiazol-4-yl)-6-chloro-8-fluoro-2-(((2R,7aS)-2-fluorotetrahydro-1H-pyrrolizin-7a(5H)-yl)methoxy)quinazolm-4-yl)-2,7-diazaspiro[3.5]nonane-2-carbonyl)-1H-imidazole-4-carbonitrile [Compound A179]” as the compound, how does the “Ratio” value read?
Its value is “A (A: indicates that the ratio of IC50 against KrasG12D vs. IC50 against KrasG12S is 1-fold or greater)”.

With `Nc1nc2c(-c3c(Cl)cc4c(N5CC6(CCN(C(=O)n7cncn7)CC6)C5)nc(OC[C@@]56CCCN5C[C@H](F)C6)nc4c3F)ccc(F)c2s1` [Compound A292, (2-(7-(2-amino-7-fluorobenzo[d]thiazol-4-yl)-6-chloro-8-fluoro-2-(((2R,7aS)-2-fluorotetrahydro-1H-pyrrolizin-7a(5H)-yl)methoxy)quinazolin-4-yl)-2,7-diazaspiro[3.5]nonan-7-yl)(1H-1,2,4-triazol-1-yl)methanone] as the compound, how does the “Ratio” value read?
Its value is “A (A: indicates that the ratio of IC50 against KrasG12D vs. IC50 against KrasG12S is 1-fold or greater)”.

`N#Cc1c(N)sc2c(F)ccc(-c3c(Cl)cc4c(OC5CCN(C(=O)Nc6nccs6)C5)nc(OC[C@@]56CCCN5C[C@H](F)C6)nc4c3F)c12` (stereo partly drawn) [Compound A150, 3-((7-(2-amino-3-cyano-7-fluorobenzo[b]thiophen-4-yl)-6-chloro-8-fluoro-2-(((2R,7aS)-2-fluorotetrahydro-1H-pyrrolizin-7a(5H)-yl)methoxy)quinazolin-4-yl)oxy)-N-(thiazol-2-yl)pyrrolidine-1-carboxamide] was tested. Which “Ratio” value did it give?
Its value is “A (A: indicates that the ratio of IC50 against KrasG12D vs. IC50 against KrasG12S is 1-fold or greater)”.
